Reference: US5990083A, “Multicatalytic protease inhibitors” (Cephalon, Inc., priority 1997, dated 1999)
Several values for one entry are separate records, joined by “and”; a condition that tells them apart may be missing. Equal entries are not always repeated.

Molecular target: T1, human MCP (Homo sapiens, UniProt P28074+Q99436)
T1 construct: Samples of human liver and brain obtained post-mortem were used for isolation and partial purification of MCP; from tissue; host or cells: human liver and brain, post-mortem
Assay: Determination of IC50 values for MCP inhibitors (chymotrypsin-like or trypsin-like activity of MCP)
Format: biochemical
Details: for % Inhibition (1 μM): 1 μM inhibitor
Experimental: Samples of human liver and brain obtained post-mortem were used for isolation and partial purification of MCP by ion-exchange chromatography, ammonium sulfate precipitation, and gel filtration (e.g., Driscoll and Goldberg, Proc. Natl. Acad. Sci. 86, 787-791 (1989); Yamamoto et al., Biochim, Biophys. Acta 882, 297-304 (1986). For either starting material, tissue was homogenized in 10 volumes of 20 mM Tris-HCl (pH 7.5) containing 20% glycerol. Following centrifugation at 40,000×g for 30 minutes, proteolytic activity of the chymotrypsin-like component of MCP could be detected in the supernatant (see below). The supernatant was fractionated on a DEAE-Sepharose Fast Flow column equilibrated in homogenization buffer. For each liter of supernatant, 250 ml of resin was used. Following sample loading, the column was washed with ^~ 10 volumes homogenization buffer, and proteins were eluted with a linear NaCl gradient of from 0 to 400 mM (21 for 250 ml resin). Fractions were assayed for MCP activity, and the active fractions were pooled and subjected to precipitation with (NH4)2 SO4 at 80% saturation. Precipitated proteins were collected by centrifugation, resuspended in homogenization buffer, and loaded on a Sephacryl S300HR column (500 ml resin volume) that had been standardized using bovine serum albumin (68 kDa). A single peak of MCP activity was eluted with a molecular weight of ^~ 650 kDa. This preparation was free of other measurable proteolytic activities and maintained its MCP activity upon storage at 4° C. for >6 months. This preparation was used for most of the experiments. Further fractionation of the preparation on an hydroxyapatite-Ultrogel column (Yamamoto et al., supra) yielded a more highly purified enzyme, which according to denaturing SDS-polyacrylamide gel electrophoresis was comprised of the expected >10 subunits ranging in Mr from 20 to 35 kDa.
The procedure for MPC isolation described above generated an enzyme complex whose proteolytic activities were latent, but which could be activated by addition of low concentrations (0.02-0.05%) of SDS (Yamamoto et al., supra). The chymotrypsin-like activity was assayed according to the following procedure: in 96 well microtiter plates, human MCP was diluted 4 to 10-fold in homogenization buffer containing 0.04% SDS. A calorimetric substrate MeOSuc-EVKM-para-nitroanilide (methoxysuccinyl-Glu-Val-Lys-Met-pNa), purchased from Bachem Bioscience Inc., King of Prussia, Pennsylvania was added to a final concentration of 100 μM from a stock solution of 10 mM in dimethylsulfoxide. Reaction volumes were 200 μl per well. After incubation for various periods of time at 37° C., the concentration of free pNa was determined on a Biotech EL-340 microplate reader, reading absorption at 490 nm. Protease activity was determined under conditions in which substrate hydrolysis increased linearly with time and the change in absorption was proportional to the concentration of free pNa. Alternatively, a fluorogenic substrate was used, methoxysuccinyl-Phe-Leu-Phe-amidomethylcoumarin (Enzyme Systems Products, Dublin, Calif.), and the change in fluorescence monitored at an excitation of 390 nm, and an emission at 460 nm.
The trypsin-like activity of human MCP was assayed as described above with the following modifications. Reactions were carried out in Tris-glycerol buffer (pH 9.5) supplemented with 1 mM 2-mercaptoethanol, and the substrate was a fluorogenic substrate, Benzyloxycarbonyl--Phe--Arg--AMC (100 μM).
After incubation for various periods of time at 37° C., the concentration of free AMC was determined on a Fluoroskan II spectrofluorimeter with an excitation filter of 390 nm and an emission filter of 460 nm. Protease activity was determined under conditions in which substrate hydrolysis increased linearly with time and the change in fluorescence was proportional to the concentration of free AMC. […]

[1] = Table 5, first series, enzyme incubated with inhibitor 15 minutes at 37° C. prior to substrate

Row | IC50 [1] | Compound | other results
1 | 130 nM | Monomethylazelayl-N^g -nitro-L-arginyl-L-phenylalaninal [Compound 27] | –
2 | > 300 nM | COC(=O)CCCCCCCC(=O)N[C@H](CCCNC(N)=NS(=O)(=O)c1c(C)c(C)c2c(c1C)CCC(C)(C)O2)C(=O)N[C@H](C=O)CC(C)C [Compound 29, Monomethylazelayl-N^g-(2,2,5,7,8-pentamethylchroman-6-sulfonyl)-D-arginyl-L-leucinal] | –
3 | 110 nM | CCCC[C@@H](C=O)NC(=O)[C@H](CCCNC(=N)NS(=O)(=O)c1c(C)c(C)c2c(c1C)CCC(C)(C)O2)NC(=O)C(CCCCCCCC(=O)OC)C1CCCC1 (stereo partly drawn) [Compound 22, 9-Methoxycarbonyl-2-cyclopentyl-nonanoyl-N^g-(2,2,5,7,8-pentamethylchroman-6-sulfonyl)-L-arginyl-L-norleucinal] | –
4 | 75 nM | COC(=O)CCCCCCCC(=O)N[C@@H](CCCN=C(N)NS(=O)(=O)c1ccc(C)cc1)C(=O)N[C@H](C=O)CC(C)C [Compound 31, Monomethylazelayl-N^g -(p-toluenesulfonyl)-L-arginyl-L-leucinal] | –
5 | – | CC(C)C[C@H](NC(=O)[C@H](CCCNC(=N)N[N+](=O)[O-])NC(=O)C(CCCCCCCCC#N)C1CCCC1)C(=O)CCl (single isomer, unassigned; isomer b) [39 (Isomer b), 10-Cyano-2-cyclopentyl-decanoyl-N^g-nitro-L-arginyl-L-leucine chloromethylketone] | IC50 (Table 7): > 1000 nM; % Inhibition (1 μM) (Table 7, 1 µM): 21%
6 | 20 nM | COC(=O)CCCCCCCC(=O)N[C@@H](CCCNC(=N)NS(=O)(=O)c1c(C)c(C)c2c(c1C)CCC(C)(C)O2)C(=O)N[C@H](C=O)CC(C)C [Compound 28, Monomethylazelayl-N^g-(2,2,5,7,8-pentamethylchroman-6-sulfonyl)-L-arginyl-L-leucinal] | –
7 | – | CC(C)C[C@H](NC(=O)[C@H](CCCNC(=N)N[N+](=O)[O-])NC(=O)C(CCCCCCCCC#N)C1CCCC1)C(=O)CCl (single isomer, unassigned; isomer a) [39 (Isomer a), 10-Cyano-2-cyclopentyl-decanoyl-N^g-nitro-L-arginyl-L-leucine chloromethylketone] | IC50 (Table 7): > 1000 nM; % Inhibition (1 μM) (Table 7, 1 µM): 31%
8 | – | CC(C)C[C@@H](C=O)NC(=O)[C@H](CCCNC(=N)N[N+](=O)[O-])NC(=O)c1ccc2ccccc2c1 [Compound 37, 2-Naphthoyl-N^g-nitro-L-arginyl-L-leucinal] | IC50 (Table 5, second series (Examples 36-38), enzyme incubated with inhibitor 15 minutes at 37° C. prior to substrate): 250 nM
9 | – | CC(C)CC(NC(=O)[C@H](CCCNC(N)=N[N+](=O)[O-])NC(=O)C(CCCCCCCCC#N)C1CCCC1)B1OC(C)(C)C(C)(C)O1 (stereo partly drawn) [Example 40, 10-Cyano-2-cyclopentyl-decanoyl-N^g-nitro-L-arginyl-boroleucine pinacol ester] | IC50 (Table 7): 6 nM; % Inhibition (1 μM) (Table 7): 100%

Row | Compound | IC50 [1] | other results
10 | CON=C[C@H](CC(C)C)NC(=O)[C@H](CCCN=C(N)N[N+](=O)[O-])NC(=O)C(CCCCCCCCC#N)C1CCCC1 (stereo partly drawn) [Compound 18, 10-cyano-2-cyclopentyl-decanoyl-N^g-nitro-L-arginyl-L-leucinal-O-methyloxime] | 700 nM | –
11 | COC(=O)CCCCCCCC(C(=O)N[C@@H](CCCNC(N)=N[N+](=O)[O-])C(=O)N[C@H](C=O)CC(C)C)C1CCCC1 (stereo partly drawn) [Compound 23, 9-Methoxycarbonyl-2-cyclopentyl-nonanoyl-N^g-nitro-L-arginyl-L-leucinal] | 5 nM | –
12 | CC(C)C[C@@H](C=O)NC(=O)[C@H](CCCNC(=N)N[N+](=O)[O-])NC(=O)C(CCCCCCCCNS(=O)(=O)C(F)(F)F)C1CCCC1 (stereo partly drawn) [Compound 25, 10-(trifluoromethanesulfonyl)amino-2-cyclopentyl-decanoyl-N^g-nitro-L-arginyl-L-leucinal] | 8 nM and 5 nM | –
13 | COC(=O)CCCCCCCC(=O)N[C@@H](CCCN=C(N)N[N+](=O)[O-])C(=O)N[C@H](C=O)CC(C)C [Compound 26, Monomethylazelayl-N^g -nitro-L-arginyl-L-leucinal] | 40 nM | –
